According to patent publication US20260327211A1, “MODULATORS OF A POTASSIUM CHANNEL AND OF TRPV1 CHANNEL AND USES THEREOF” (Bsense Bio Therapeutics Ltd., priority 2023, published 2026):
Each block holds one compound with its values, some of them ahead of it.

What was measured:
hTRPV1 = molecular target: T1, hTRPV1 (Homo sapiens, UniProt Q8NER1); test: TRPV1 whole-cell electrophysiology, CHO cells expressing hTRPV1 alone; type: cell-based
T1 construct: CDS of NM_080704.4, inserted into the multiple cloning site of pcDNA3.1(+); host or cells: CHO/hKv7.2/3
T1 sequence (Q8NER1 whole entry): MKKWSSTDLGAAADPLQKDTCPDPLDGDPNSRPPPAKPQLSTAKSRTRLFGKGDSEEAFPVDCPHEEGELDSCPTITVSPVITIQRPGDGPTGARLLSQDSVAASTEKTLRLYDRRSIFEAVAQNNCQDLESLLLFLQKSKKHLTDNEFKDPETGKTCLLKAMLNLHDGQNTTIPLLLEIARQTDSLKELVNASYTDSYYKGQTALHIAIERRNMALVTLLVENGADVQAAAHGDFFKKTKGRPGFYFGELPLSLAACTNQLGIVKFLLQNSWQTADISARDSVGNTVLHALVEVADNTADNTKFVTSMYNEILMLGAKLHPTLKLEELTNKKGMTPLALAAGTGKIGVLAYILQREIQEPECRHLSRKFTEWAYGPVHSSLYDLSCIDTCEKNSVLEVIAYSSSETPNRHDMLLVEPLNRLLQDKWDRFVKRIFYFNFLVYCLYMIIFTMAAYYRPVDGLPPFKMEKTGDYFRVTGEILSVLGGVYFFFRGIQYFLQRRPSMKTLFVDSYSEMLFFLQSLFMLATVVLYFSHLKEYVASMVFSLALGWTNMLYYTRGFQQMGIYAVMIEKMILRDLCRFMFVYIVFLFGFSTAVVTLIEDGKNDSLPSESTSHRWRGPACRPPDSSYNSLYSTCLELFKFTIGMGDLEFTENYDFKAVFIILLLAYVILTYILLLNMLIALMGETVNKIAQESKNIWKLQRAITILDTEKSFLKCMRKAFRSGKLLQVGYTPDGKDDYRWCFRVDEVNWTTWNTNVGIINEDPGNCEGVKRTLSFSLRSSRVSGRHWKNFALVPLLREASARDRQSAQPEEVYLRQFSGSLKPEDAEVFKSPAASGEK
Description: Extracellular (Bath) solution: The solution was composed of (in mM): NaCl, 140; KCl, 4; CaCl2, 1.8; MgCl2, 1.2; Glucose, 11; HEPES, 5.5. pH was adjusted to 7.3 with NaOH. Osmolarity was adjusted to 310 mOsm with Sucrose.
Intracellular (Pipette) solution: Pipettes were pulled from borosilicate glass (Warner Instrument Corp, USA) with a resistance of 3-7 MΩ and filled with internal solution composed of (in mM): KCl, 130; MgCl2, 1; K ATP, 5; EGTA, 5; HEPES, 10. pH was adjusted to 7.3 with KOH. Osmolarity was adjusted to 290 mOsm with Sucrose. A programmable valve-linked pressurized perfusion system was used to locally apply compounds nearby the cell recorded, in a consistent flow rate of 2-3 ml/min. Data were sampled at 5 kHz and low pass filtered at 2.4 kHz using MultiClamp 700B amplifier with pCLAMP11 software (Molecular Devices, USA).
[…]. A 3-minute time interval was set between sequential Capsaicin injections to allow its washout and cell recovery. All compounds are injected in the vicinity of the cells using the pressurized perfusion system.
The drug current response, when capsaicin (co-applied with test compound) is injected following >3 minutes of pre-incubation with the test compound, is divided by the averaged control currents, obtained when capsaicin is injection alone, before compound incubation and following its washout, to evaluate the drug/control response.

DRG distribution in rat = type: in vivo; conditions: 8-hour post-dose
[1] = system: Post-operative Pain (POP) rats; test: Post-operative Pain model, mechanical PWT; type: in vivo, rat; conditions: 100 mg/kg, 6 hours post-dose
Experimental: All animal experiments were carried out according to the Guide for the Care and Use of Laboratory Animals (2011 edition) and approved by the Israel National Institutional Animal Care and Use Committee (IACUC). Young adult male SD rats (Envigo RMS, Israel), were used for in vivo efficacy: Spared Nerve Injury (SNI), Distal Tibial Injury (DTI) and Post-operative Pain (POP), 200-220 grams, Chronic Post-Ischemia Pain (CPIP) 275-325 grams, Monosodium iodoacetate-induced osteoarthritis (MIA-OA) 180-220 grams; for in vivo safety: 200-250 grams at study initiation. […] The health status of the animals used in this study was examined upon their arrival. Only animals in good health were acclimatized to laboratory conditions and were used in the studies. All studies were performed following at least five days of animal acclimation. During acclimation and throughout the entire study duration, animals were housed within a limited-access rodent facility and kept in groups with a maximum of 2-3 rats per polypropylene cage. The cages were fitted with solid bottoms and filled with sterile wood shavings as bedding material. […] Water was monitored periodically. […]
Post-operative Pain (POP): For this model, animals were anesthetized by medetomidine/ketamine sodium IP. […] On the following day, animal responses to von Frey (VF) filaments and hot-plate testing were recorded. […]

In vitro micronucleus = type: cell-based; conditions: hamster, cho-k1 cells, read-out: Cytotoxicity (%) Absolute EC50
CHO-K1 cells = test: In vitro micronucleus; type: cell-based
GABAA = test: Functional selectivity panel, GABAA; type: biochemical; conditions: up to 10 micromolar
Experimental: (§1) A broad panel of 78 recombinant targets was tested for pharmacologic activity in vitro through a variety of functional assays (Eurofins DiscoverX, USA), as part of the National Institute of Neurological Disorders and Stroke (NINDS) Preclinical Screening Platform for Pain (PSPP) program. The biological targets for the in vitro profiling have been selected based on avoiding opioid receptor stimulation and targets known to be associated with adverse events or targeted by drugs of abuse. […] For each test, a reference compound was evaluated at the target of interest as a positive control.

98 targets = test: Functional screening panel, 98 targets
MATE2-K = test: Transporter substrate, MATE2-K; type: in vitro ADME; conditions: role: substrate
Experimental: Additionally, compound 760 was tested for its capability to act as a transporter substrate for various transporters, and was not found to be a transporter substrate for any of the tested transporters.

hERG = hERG (Homo sapiens, UniProt Q12809); test: Functional selectivity panel, hERG; type: biochemical; parameters: Eurofins DiscoverX functional panel cells; conditions: up to 10 micromolar
Sequence of hERG (Q12809 whole entry): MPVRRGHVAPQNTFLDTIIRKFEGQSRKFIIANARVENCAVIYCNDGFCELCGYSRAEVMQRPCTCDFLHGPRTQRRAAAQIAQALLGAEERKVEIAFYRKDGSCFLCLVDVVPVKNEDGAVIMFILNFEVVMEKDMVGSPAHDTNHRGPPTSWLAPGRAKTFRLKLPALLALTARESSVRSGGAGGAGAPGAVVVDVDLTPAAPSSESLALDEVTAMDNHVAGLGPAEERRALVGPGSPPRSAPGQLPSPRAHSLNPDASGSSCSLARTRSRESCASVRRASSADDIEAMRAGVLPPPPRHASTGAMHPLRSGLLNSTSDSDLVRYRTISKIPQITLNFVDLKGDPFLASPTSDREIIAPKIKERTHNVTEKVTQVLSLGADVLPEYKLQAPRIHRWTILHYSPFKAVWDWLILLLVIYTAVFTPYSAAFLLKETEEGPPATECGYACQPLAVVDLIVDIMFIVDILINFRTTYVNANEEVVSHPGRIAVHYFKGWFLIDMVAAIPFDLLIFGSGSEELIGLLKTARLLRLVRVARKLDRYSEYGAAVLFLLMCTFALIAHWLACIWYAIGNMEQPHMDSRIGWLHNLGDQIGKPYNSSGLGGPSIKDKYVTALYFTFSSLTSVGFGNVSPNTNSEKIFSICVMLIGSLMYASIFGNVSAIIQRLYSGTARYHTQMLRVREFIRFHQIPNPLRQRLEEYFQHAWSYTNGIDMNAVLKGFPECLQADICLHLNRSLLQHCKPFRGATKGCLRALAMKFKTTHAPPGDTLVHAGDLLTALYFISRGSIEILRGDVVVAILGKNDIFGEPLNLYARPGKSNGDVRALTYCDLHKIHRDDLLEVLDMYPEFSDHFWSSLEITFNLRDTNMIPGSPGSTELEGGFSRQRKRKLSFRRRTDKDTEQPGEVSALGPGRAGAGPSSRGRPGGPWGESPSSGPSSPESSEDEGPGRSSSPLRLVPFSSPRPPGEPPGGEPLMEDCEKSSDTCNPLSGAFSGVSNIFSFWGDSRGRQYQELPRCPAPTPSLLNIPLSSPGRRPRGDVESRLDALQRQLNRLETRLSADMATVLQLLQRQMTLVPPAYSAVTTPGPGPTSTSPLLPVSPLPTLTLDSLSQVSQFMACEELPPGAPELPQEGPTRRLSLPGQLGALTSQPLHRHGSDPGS
Experimental: as §1

IC50 (hTRPV1): 2 µM
TRPV1 inhibition, hTRPV1 alone (hTRPV1; 1.3 μM): partial TRPV1 inhibition
SMILES: O=C(Cc1cc(-n2cc(Cl)c3cc(Cl)cc(Cl)c32)ccc1F)NCCO [Compound 627]

Free exposure in DRG (DRG distribution in rat): 0.012 nM
SMILES: O=C(Cc1cncc(-n2cc(Cl)c3cc(Cl)cc(Cl)c32)c1)N[C@@H]1COC[C@H]1O [Compound 661]
Mechanical PWT [1]: did not affect the mechanical PWT

SMILES: O=C(Cc1nccc(-n2cc(Cl)c3cc(Cl)cc(Cl)c32)n1)NC1COCC1O (stereo not drawn) [Compound 760]
CC50 at 3 h (In vitro micronucleus; Plate 2 without S9, 3 hours): > 200 µM
CC50 at 24 h (In vitro micronucleus; Plate 3 without S9, 24 hours): 81.2 µM
Micronucleus formation (CHO-K1 cells): lacks significant micronucleus formation
Micronucleus response Absolute MEC (CHO-K1 cells; Plate 1 with S9, 3 hours): >200 µM
CC50 (CHO-K1 cells; Plate 1 with S9, 3 hours, read-out: Cytotoxicity (%) Absolute EC50): > 200 µM
Micronucleus response Absolute MEC (CHO-K1 cells; Plate 2 without S9, 3 hours): >200 µM
Micronucleus response Absolute MEC (CHO-K1 cells; Plate 3 without S9, 24 hours): >200 µM
Effect on GABAA (GABAA): no effect
Off-target effect profile (98 targets): clean off-target effect profile
MATE2-K substrate (MATE2-K): not a transporter substrate
Effect on hERG (hERG): no effect
